Reference: patent US20110177541A1, “METHOD FOR ADJUSTING THE COAGULATION TIME IN CALIBRATOR OR CONTROL PLASMAS” (DIAGNOSTICA STAGO, priority 2010, published 2011)

Test system: plasma coagulation time (PT)
Test: Prothrombin time (PT) in STA NeoCl+ on treated (defrosted, pooled, excipient-supplemented, filtered) plasma
Format: biochemical
Procedure: The plasma bags were defrosted at 37° C.±2° C. in a defroster; once defrosted, the plasma was stabilized at 37° C.±2° C. for 30 minutes.
The bags were then pooled in a stainless steel container and the plasma was then homogenized using a magnetic stirrer.
The lyophilization excipients (lactose, saccharose, HEPES buffer) were added, stirring until dissolution was complete.
A sample was taken to measure the pH, the conductivity and to determine the PT on a STA Neo Cl+ apparatus using STA-R (Diagnostica STAGO).
The plasma was filtered on a CRK1 cartridge (Millipore) and a sample was taken to determine the PT in the NeoCl+ after filtration. […]
A sample of each point was tested in the STA NeoCl+; a range resulting from the addition of different concentrations of F VIIa was produced for each level as a function of the coagulation times obtained.
For each point, the concentration of added factor VIIa was determined as a function of the times on a reference graph obtained for fresh plasmas.
The F VIIa was then added, and homogenized and a sample of each point was taken in order to measure the pH, the conductivity and to determine the PT in the STA NeoCl+ using STA-R to verify that the desired times were indeed obtained, then each product was distributed and lyophilized.
In the table below, a range for procoagulant factor F VIIa has been produced for a range of concentrations of rivaroxaban.

O=C(NC[C@H]1CN(c2ccc(N3CCOCC3=O)cc2)C(=O)O1)c1ccc(Cl)s1 [rivaroxaban]
PT divergence of treated plasma with respect to fresh plasma (500 ng/mL of rivaroxaban, FIG. 1): 13 s | Time in NeoCl+ (rivaroxaban 25 ng/mL, FVIIa 0 IU/mL): 14.4 s | Time in NeoCl+ (rivaroxaban 25 ng/mL, FVIIa 0.1 IU/mL): 13.7 s | Time in NeoCl+ (rivaroxaban 50 ng/mL, FVIIa 0 IU/mL): 15.3 s | Time in NeoCl+ (rivaroxaban 50 ng/mL, FVIIa 0.2 IU/mL): 14.3 s | Time in NeoCl+ (rivaroxaban 50 ng/mL, FVIIa 0.3 IU/mL): 14.6 s | Time in NeoCl+ (rivaroxaban 50 ng/mL, FVIIa 0.4 IU/mL): 14.6 s | Time in NeoCl+ (rivaroxaban 200 ng/mL, FVIIa 0 IU/mL): 21.2 s | Time in NeoCl+ (rivaroxaban 200 ng/mL, FVIIa 0.1 IU/mL): 19.8 s | Time in NeoCl+ (rivaroxaban 200 ng/mL, FVIIa 0.2 IU/mL): 19 s | Time in NeoCl+ (rivaroxaban 250 ng/mL, FVIIa 0 IU/mL): 23.5 s | Time in NeoCl+ (rivaroxaban 250 ng/mL, FVIIa 0.2 IU/mL): 21 s | Time in NeoCl+ (rivaroxaban 250 ng/mL, FVIIa 0.3 IU/mL): 20.3 s | Time in NeoCl+ (rivaroxaban 250 ng/mL, FVIIa 0.4 IU/mL): 19.9 s | Time in NeoCl+ (rivaroxaban 500 ng/mL, FVIIa 0 IU/mL): 32 s | Time in NeoCl+ (rivaroxaban 500 ng/mL, FVIIa 0.1 IU/mL): 29.9 s | Time in NeoCl+ (rivaroxaban 500 ng/mL, FVIIa 0.2 IU/mL): 28.4 s | Time in NeoCl+ (rivaroxaban 500 ng/mL, FVIIa 0.3 IU/mL): 27.5 s | Time in NeoCl+ (rivaroxaban 500 ng/mL, FVIIa 0.4 IU/mL): 26.8 s | Time in NeoCl+ (rivaroxaban 800 ng/mL, FVIIa 0 IU/mL): 43.5 s | Time in NeoCl+ (rivaroxaban 800 ng/mL, FVIIa 0.2 IU/mL): 38.3 s | Time in NeoCl+ (rivaroxaban 800 ng/mL, FVIIa 0.3 IU/mL): 36.6 s
